Counter-ions that a name gives are not always drawn.
test system: 2-phenyl-1,4-benzoquinone-induced writhing; assay: 2-phenyl-1,4-benzoquinone-induced writhing test in mice (Phenylquinone Writhing), analgesic activity; assay type: in vivo; settings: Mus musculus, sc, read-out: Inhibition of Writing ED50
Text: Compounds of Formula I of the present invention, namely, compounds of Formulas II, III and IV are useful as analgesic agents due to their ability to alleviate pain in mammals. […] Exptl. Biol. Med., 95, 729 (1957)].

Going from CC1Nc2ccccc2N2CC3(CCN(C)CC3)c3cccc1c32 (stereo not shown) [1',6-Dimethyl-1,2,6,7-tetrahydro-spiro[indolo[1,7-ab][1,5]benzodiazepine-2,4'-piperidine]dihydrochloride] to CC1=Nc2ccccc2N2CC3(CCN(C)CC3)c3cccc1c32 [1,2-Dihydro-1',6-dimethyl-spiro[indolo[1,7-ab][1,5]benzodiazepine-2,4'-piperidine]dihydrochloride], the ED50 falls from 9.7 mg/kg to 4.7 mg/kg (2.1-fold).

Compared with CN1CCC2(CC1)CN1c3ccccc3N=Cc3cccc2c31 [1,2-Dihydro-1'-methyl-spiro[indolo[1,7-ab][1,5]benzodiazepine-2,4'-piperidine]dihydrochloride], CC1c2cccc3c2N(CC32CCN(C)CC2)c2ccccc2N1C(=O)CCN(C)C (stereo not shown) [7-(N,N-dimethyl-3-aminopropionyl)-1',6-dimethyl-1,2,6,7-tetrahydro-spiro[indolo[1,7-ab][1,5]benzodiazepine-2,4'-piperidine]dihydrobromide] is 2.3-fold higher in ED50: 12.1 mg/kg for the first, 28.4 mg/kg for the second.
